Results: patent publication US8569448B2, “NMDAR biomarkers for diagnosis and treatment of traumatic brain injury and other disorders” (Grace Laboratories, LLC, priority 2006, dated 2013)

How the values were obtained:
[1] = system: isolated giant neurons of mollusk Planorbarius Corneus; test: physiological functions in isolated giant neurons of mollusk; assay type: cell-based
Text: Several double derivatives of glutamic acid {E-(CH2)n-E} or containing amino acids (glycine, lysine, histidine, and/or arginine, {E-amino acid-E}) including chelates (Fe2+, Mg2+, or Zn2+) were synthesized and used to study their physiological functions in isolated giant neurons of mollusk Planorbarius Corneus. […] The effect of these substances depended on the length of the amino acid chain (CH2)n between the residues of glutamic acid.
The Hill coefficient (nH) is a central parameter in the study of ligand-protein interactions, which measures the degree of co-operativity between subunits that bind the ligand in multi-subunit proteins. The most common usage of nH is as an estimate of the minimal number of interacting binding sites in positively co-operating systems. The Hill coefficient for tested compounds was about 0.75.

[2] = system: patients who had suffered an acute ischemic stroke; details: sublingual 2.0 g/day, five consecutive days, acute ischemic stroke within six hours

For “glutamic acid-lysine Zn2+-arginin-glutamic acid”, the “effect on neurons depending on chain length between glutamic acid residues” value ([1]; comparison among double derivatives) was “maximal effect”.

With `NCC(=O)O` [glycine] the “decrease of 30 day mortality compared to placebo” value [2] was 20%.

For `N[C@@H](CCC(=O)O)C(=O)O` [glutamate], the “neuronal response evoked by application” value ([1]; isolated giant neurons, application/injection of substance) was “biphasic responses”.
